Source: ChEMBL document CHEMBL1275440, “In vitro activity of telavancin against resistant gram-positive bacteria” (2008)
Converted amounts (≈) assume the structure as drawn. The source made the active and inactive calls. The calls are words filed in the database; no cut-off is given here.

Tests used:
Format in all cases: functional
Streptococcus agalactiae [1] = assay: Antibacterial activity against Streptococcus agalactiae group B clinical isolate by broth microdilution method
Streptococcus pneumoniae [2] = assay: Antibacterial activity against penicillin intermediate Streptococcus pneumoniae clinical isolate by broth microdilution method
Streptococcus pyogenes [3] = assay: Antibacterial activity against Streptococcus pyogenes group A clinical isolate assessed as susceptibility level by broth microdilution method
Streptococcus viridans [4] = assay: Antibacterial activity against Streptococcus viridans clinical isolate assessed as susceptibility level by broth microdilution method
[5] = test system: Streptococcus intermedius; assay: Antibacterial activity against Streptococcus intermedius clinical isolate by broth microdilution method
[6] = test system: Streptococcus constellatus; assay: Antibacterial activity against Streptococcus constellatus clinical isolate by broth microdilution method
Streptococcus oralis [7] = assay: Antibacterial activity against Streptococcus oralis clinical isolate assessed as susceptibility level by broth microdilution method
Streptococcus pneumoniae [8] = assay: Antibacterial activity against penicillin resistant Streptococcus pneumoniae clinical isolate assessed as susceptibility level by broth microdilution method
Streptococcus pneumoniae [9] = assay: Antibacterial activity against multidrug-resistant Streptococcus pneumoniae clinical isolate by broth microdilution method
Streptococcus pyogenes [10] = assay: Antibacterial activity against Streptococcus pyogenes group A clinical isolate by broth microdilution method
[11] = test system: Streptococcus constellatus; assay: Antibacterial activity against Streptococcus constellatus clinical isolate assessed as susceptibility level by broth microdilution method
Streptococcus mitis [12] = assay: Antibacterial activity against Streptococcus mitis clinical isolate assessed as susceptibility level by broth microdilution method
Streptococcus oralis [13] = assay: Antibacterial activity against Streptococcus oralis clinical isolate by broth microdilution method
Streptococcus pneumoniae [14] = assay: Antibacterial activity against penicillin resistant Streptococcus pneumoniae clinical isolate by broth microdilution method
Streptococcus viridans [15] = assay: Antibacterial activity against Streptococcus viridans clinical isolate by broth microdilution method
Streptococcus mitis [16] = assay: Antibacterial activity against Streptococcus mitis clinical isolate by broth microdilution method
[17] = test system: Streptococcus intermedius; assay: Antibacterial activity against Streptococcus intermedius clinical isolate assessed as susceptibility level by broth microdilution method
Streptococcus agalactiae [18] = assay: Antibacterial activity against Streptococcus agalactiae group B clinical isolate assessed as susceptibility level by broth microdilution method
Streptococcus pneumoniae [19] = assay: Antibacterial activity against multidrug-resistant Streptococcus pneumoniae clinical isolate assessed as susceptibility level by broth microdilution method
Streptococcus pneumoniae [20] = assay: Antibacterial activity against penicillin intermediate Streptococcus pneumoniae clinical isolate assessed as susceptibility level by broth microdilution method

Row | SMILES | MIC50 (Streptococcus agalactiae [1]) | MIC90 (Streptococcus agalactiae [1]) | MIC50 (Streptococcus pneumoniae [2]) | MIC90 (Streptococcus pneumoniae [2]) | Activity (Streptococcus pyogenes [3]) | Activity (Streptococcus viridans [4]) | MIC [5] | MIC50 [5] | MIC90 [5] | MIC [6] | MIC50 [6] | MIC90 [6] | Activity (Streptococcus oralis [7]) | Activity (Streptococcus pneumoniae [8]) | MIC50 (Streptococcus pneumoniae [9]) | MIC50 (Streptococcus pyogenes [10]) | MIC90 (Streptococcus pyogenes [10]) | Activity [11] | Activity (Streptococcus mitis [12]) | MIC (Streptococcus oralis [13]) | other results
1 | CO/N=C(\C(=O)N[C@@H]1C(=O)N2C(C(=O)O)=C(CSc3nc(=O)c(O)nn3C)CS[C@H]12)c1csc(N)n1 [CEFTRIAXONE] | 0.06 µg/mL (≈ 0.108 µM) | 0.06 µg/mL (≈ 0.108 µM) | 0.5 µg/mL (≈ 0.902 µM) | 1 µg/mL (≈ 1.8 µM) | 92% | 75% | 0.03 µg/mL (≈ 0.0541 µM) | inactive | inactive | 0.03 µg/mL (≈ 0.0541 µM) | inactive | inactive | 75% | 73% | 1 µg/mL (≈ 1.8 µM) | ≤ 0.015 µg/mL | 0.12 µg/mL (≈ 0.216 µM) | 75% | 75% | 0.03 µg/mL (≈ 0.0541 µM) | MIC90 (Streptococcus pneumoniae [9]): 2 µg/mL (≈ 3.61 µM); MIC (Streptococcus pyogenes [10]): ≤ 0.015 µg/mL; MIC50 (Streptococcus oralis [13]): inactive; MIC90 (Streptococcus oralis [13]): inactive; MIC50 (Streptococcus pneumoniae [14]): 1 µg/mL (≈ 1.8 µM); MIC90 (Streptococcus pneumoniae [14]): 2 µg/mL (≈ 3.61 µM); MIC (Streptococcus viridans [15]): 0.03 µg/mL (≈ 0.0541 µM); MIC50 (Streptococcus viridans [15]): inactive; MIC90 (Streptococcus viridans [15]): inactive; MIC (Streptococcus mitis [16]): 0.03 µg/mL (≈ 0.0541 µM); MIC50 (Streptococcus mitis [16]): inactive; MIC90 (Streptococcus mitis [16]): inactive; Activity [17]: 75%; Activity (Streptococcus agalactiae [18]): 96%; Activity (Streptococcus pneumoniae [19]): 77%; Activity (Streptococcus pneumoniae [20]): 92%
2 | CCC[C@@H]1C[C@@H](C(=O)N[C@@H]([C@H]2O[C@H](SC)[C@H](O)[C@@H](O)[C@H]2O)[C@H](C)Cl)N(C)C1 [CLINDAMYCIN] | 0.06 µg/mL (≈ 0.141 µM) | > 0.25 µg/mL | 0.06 µg/mL (≈ 0.141 µM) | 0.5 µg/mL (≈ 1.18 µM) | 98% | 88% | ≤ 0.03 µg/mL | inactive | inactive | ≤ 0.03 µg/mL | inactive | inactive | 88% | 76% | 0.06 µg/mL (≈ 0.141 µM) | ≤ 0.03 µg/mL | 0.06 µg/mL (≈ 0.141 µM) | 88% | 88% | ≤ 0.03 µg/mL | MIC (Streptococcus pneumoniae [2]): 0.06 µg/mL (≈ 0.141 µM); MIC90 (Streptococcus pneumoniae [9]): > 0.25 µg/mL; MIC (Streptococcus pyogenes [10]): ≤ 0.03 µg/mL; MIC50 (Streptococcus oralis [13]): inactive; MIC90 (Streptococcus oralis [13]): inactive; MIC50 (Streptococcus pneumoniae [14]): 0.06 µg/mL (≈ 0.141 µM); MIC90 (Streptococcus pneumoniae [14]): > 0.25 µg/mL; MIC (Streptococcus viridans [15]): ≤ 0.03 µg/mL; MIC50 (Streptococcus viridans [15]): inactive; MIC90 (Streptococcus viridans [15]): inactive; MIC (Streptococcus mitis [16]): ≤ 0.03 µg/mL; MIC50 (Streptococcus mitis [16]): inactive; MIC90 (Streptococcus mitis [16]): inactive; Activity [17]: 88%; Activity (Streptococcus agalactiae [18]): 86%; Activity (Streptococcus pneumoniae [19]): 73%; Activity (Streptococcus pneumoniae [20]): 83%
3 | C[C@H]1COc2c(N3CCN(C)CC3)c(F)cc3c(=O)c(C(=O)O)cn1c23.C[C@H]1COc2c(N3CCN(C)CC3)c(F)cc3c(=O)c(C(=O)O)cn1c23.O [LEVOFLOXACIN] | 0.5 µg/mL | 1 µg/mL | 0.5 µg/mL | 1 µg/mL | 98% | 100% | ≤ 0.12 µg/mL | inactive | inactive | ≤ 0.12 µg/mL | inactive | inactive | 100% | 97% | 0.5 µg/mL | 0.5 µg/mL | 1 µg/mL | 100% | 100% | ≤ 0.12 µg/mL | MIC90 (Streptococcus pneumoniae [9]): 1 µg/mL; MIC50 (Streptococcus oralis [13]): inactive; MIC90 (Streptococcus oralis [13]): inactive; MIC50 (Streptococcus pneumoniae [14]): 0.5 µg/mL; MIC90 (Streptococcus pneumoniae [14]): 1 µg/mL; MIC (Streptococcus viridans [15]): ≤ 0.12 µg/mL; MIC50 (Streptococcus viridans [15]): inactive; MIC90 (Streptococcus viridans [15]): inactive; MIC (Streptococcus mitis [16]): ≤ 0.12 µg/mL; MIC50 (Streptococcus mitis [16]): inactive; MIC90 (Streptococcus mitis [16]): inactive; Activity [17]: 100%; Activity (Streptococcus agalactiae [18]): 99%; Activity (Streptococcus pneumoniae [19]): 95%; Activity (Streptococcus pneumoniae [20]): 92%
4 | CN(C)[C@@H]1C(O)=C(C(N)=O)C(=O)[C@@]2(O)C(O)=C3C(=O)c4c(O)cccc4[C@@](C)(O)[C@H]3C[C@@H]12 [TETRACYCLINE] | > 8 µg/mL | > 8 µg/mL | 0.12 µg/mL (≈ 0.27 µM) | > 8 µg/mL | 89% | 75% | 0.12 µg/mL (≈ 0.27 µM) | inactive | inactive | 0.12 µg/mL (≈ 0.27 µM) | inactive | inactive | 75% | 41% | > 8 µg/mL | 0.12 µg/mL (≈ 0.27 µM) | 4 µg/mL (≈ 9 µM) | 75% | 75% | 0.12 µg/mL (≈ 0.27 µM) | MIC50 (Streptococcus oralis [13]): inactive; MIC90 (Streptococcus oralis [13]): inactive; MIC50 (Streptococcus pneumoniae [14]): > 8 µg/mL; MIC (Streptococcus viridans [15]): 0.12 µg/mL (≈ 0.27 µM); MIC50 (Streptococcus viridans [15]): inactive; MIC90 (Streptococcus viridans [15]): inactive; MIC (Streptococcus mitis [16]): 0.12 µg/mL (≈ 0.27 µM); MIC50 (Streptococcus mitis [16]): inactive; MIC90 (Streptococcus mitis [16]): inactive; Activity [17]: 75%; Activity (Streptococcus agalactiae [18]): 16%; Activity (Streptococcus pneumoniae [19]): 37%; Activity (Streptococcus pneumoniae [20]): 67%
